Source: patent publication US20240190872A1, “FABI INHIBITORS FOR GRAM-NEGATIVE PATHOGENS” (THE BOARD OF TRUSTEES OF THE UNIVERSITY OF ILLINOIS, priority 2021, published 2024)
Converted amounts (≈) assume the structure as drawn. Where two headings read alike, the source gives them in different places.

Tests used:
in vitro [1] = conditions: human, plasma
E. coli AR 0048 = assay: microbe, parasite or virus in culture; format: cell-based; conditions: Escherichia coli, AR0048, read-out: MIC E. coli AR 0048
Outline: (§1)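 Susceptibility values come from triplicate biological repeats of a CLSI-style broth dilution assay using cation-adjusted Mueller-Hinton medium.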

A. baumannii AR 0273 = assay: microbe, parasite or virus in culture; format: cell-based; conditions: Acinetobacter baumannii, AR0273, read-out: MIC A. baumannii AR 0273
Outline: as §1

A. baumannii AR 0033 = assay: microbe, parasite or virus in culture; format: cell-based; conditions: Acinetobacter baumannii, AR0033, read-out: MIC A. baumannii AR 0033
Outline: as §1

A. baumannii AR 0313 = assay: microbe, parasite or virus in culture; format: cell-based; conditions: Acinetobacter baumannii, AR0313, read-out: MIC A. baumannii AR 0313
Outline: as §1

K. pneumoniae AR 0560 = assay: microbe, parasite or virus in culture; format: cell-based; conditions: Klebsiella pneumoniae, AR0560, read-out: MIC K. pneumoniae AR 0560
Outline: as §1

A. baumannii AR 0299 = assay: microbe, parasite or virus in culture; format: cell-based; conditions: Acinetobacter baumannii, AR0299, read-out: MIC A. baumannii AR 0299
Outline: as §1

K. pneumoniae AR 0066 = assay: microbe, parasite or virus in culture; format: cell-based; conditions: Klebsiella pneumoniae, AR0066, read-out: MIC K. pneumoniae AR 0066
Outline: as §1

E. coli AR 0085 = assay: microbe, parasite or virus in culture; format: cell-based; conditions: Escherichia coli, AR0085, read-out: MIC E. coli AR 0085
Outline: as §1

K. pneumoniae AR 0113 = assay: microbe, parasite or virus in culture; format: cell-based; conditions: Klebsiella pneumoniae, AR0113, read-out: MIC K. pneumoniae AR 0113
Outline: as §1

in vitro [2] = conditions: mouse, plasma
S. aureus ATCC 29213 = assay: Antimicrobial susceptibility test (MIC), micro-dilution broth; format: cell-based; conditions: Staphylococcus aureus, ATCC29213
Outline: (§2)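 CLSI micro-dilution broth method in cation-adjusted Mueller-Hinton broth, in biological triplicate; human serum (pooled, filtered) was also used.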

HERG = HERG (Homo sapiens (Human), UniProt Q12809); assay: cell-based
Chain of HERG (Q12809 whole entry): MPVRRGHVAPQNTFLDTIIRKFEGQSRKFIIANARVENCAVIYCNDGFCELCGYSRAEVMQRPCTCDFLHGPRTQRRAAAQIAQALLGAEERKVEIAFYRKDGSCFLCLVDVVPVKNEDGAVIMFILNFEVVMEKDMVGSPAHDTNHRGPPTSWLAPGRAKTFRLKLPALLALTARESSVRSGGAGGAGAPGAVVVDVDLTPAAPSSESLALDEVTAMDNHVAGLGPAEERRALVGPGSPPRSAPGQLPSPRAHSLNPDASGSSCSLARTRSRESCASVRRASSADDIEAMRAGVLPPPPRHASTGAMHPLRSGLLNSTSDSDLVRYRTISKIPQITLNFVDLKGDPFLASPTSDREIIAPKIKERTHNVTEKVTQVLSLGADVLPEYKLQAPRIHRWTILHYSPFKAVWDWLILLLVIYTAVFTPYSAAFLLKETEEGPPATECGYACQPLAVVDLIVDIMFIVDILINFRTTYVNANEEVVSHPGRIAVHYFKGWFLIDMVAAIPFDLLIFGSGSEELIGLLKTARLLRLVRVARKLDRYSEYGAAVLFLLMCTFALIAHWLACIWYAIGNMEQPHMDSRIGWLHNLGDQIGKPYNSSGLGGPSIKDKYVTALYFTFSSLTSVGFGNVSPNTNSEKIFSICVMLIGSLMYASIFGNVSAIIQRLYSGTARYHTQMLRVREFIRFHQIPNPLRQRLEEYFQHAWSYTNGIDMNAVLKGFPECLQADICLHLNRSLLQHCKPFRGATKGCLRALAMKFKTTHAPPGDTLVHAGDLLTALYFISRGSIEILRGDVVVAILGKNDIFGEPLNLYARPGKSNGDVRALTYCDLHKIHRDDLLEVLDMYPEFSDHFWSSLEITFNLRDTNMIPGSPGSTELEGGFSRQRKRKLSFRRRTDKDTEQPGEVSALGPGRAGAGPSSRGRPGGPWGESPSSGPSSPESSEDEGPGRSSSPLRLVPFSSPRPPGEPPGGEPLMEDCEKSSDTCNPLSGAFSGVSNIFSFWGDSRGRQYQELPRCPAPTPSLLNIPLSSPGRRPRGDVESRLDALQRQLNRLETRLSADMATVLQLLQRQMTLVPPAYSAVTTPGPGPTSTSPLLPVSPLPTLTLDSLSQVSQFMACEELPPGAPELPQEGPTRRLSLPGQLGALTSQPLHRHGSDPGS

E. coli MG1655 = assay: Antimicrobial susceptibility test (MIC); format: cell-based; conditions: Escherichia coli, MG1655
Outline: as §2

H. sapiens A549 = assay: In-vitro cytotoxicity; format: cell-based
A. baumannii FabI = A. baumannii FabI (Acinetobacter baumannii, UniProt D0CAD5); assay: biochemical; conditions: purified FabI, apparent inhibition constant; read-out: A. baumannii FabI Ki^app
Chain of A. baumannii FabI (D0CAD5 1-288): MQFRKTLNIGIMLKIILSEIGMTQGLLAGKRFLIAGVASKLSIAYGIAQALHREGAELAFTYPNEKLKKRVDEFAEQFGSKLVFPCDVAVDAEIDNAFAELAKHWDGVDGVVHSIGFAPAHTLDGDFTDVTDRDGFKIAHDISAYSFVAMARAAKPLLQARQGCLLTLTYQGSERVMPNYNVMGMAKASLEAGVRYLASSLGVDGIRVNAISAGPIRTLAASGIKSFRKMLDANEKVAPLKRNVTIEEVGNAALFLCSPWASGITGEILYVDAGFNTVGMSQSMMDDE
Protocol: Mode of Action. To probe the effects of varying ring systems and amine placement on FabI target engagement, the apparent inhibition constants (Ki^app) for select compounds were determined using purified FabI. The goal of these studies was two-fold, to comparatively assess fabimycin, Debio-1452-NH3, and Debio-1452, and to also assess differential activity against the E. coli and A. baumannii versions of FabI. FabI from E. coli and A. baumannii were recombinantly expressed and purified, and the ability for each compound to inhibit the activity of these enzymes was evaluated using a standard FabI enzyme assay.
In vitro FabI inhibition assay. NADH (Sigma-Aldrich, Cat# N8129) and crotonoyl-CoA (Sigma-Aldrich, Cat# 28007) were both diluted into activity buffer [100 mM potassium glutamate (pH 7.8)], and working solution was dispensed into two columns of round-bottom 96-well plate (330 μL per well). Inhibitors, dissolved in DMSO at 200× final concentration, were added to each well via multichannel pipette (2.48 μL per well). After thorough mixing, this mixture was transferred to UV-transparent plate (UV-STAR half-area 96-well plate, Greiner Bio-One, Cat#675801, 100 μL per well, three technical replicates per inhibitor concentration). Plate was placed in plate-reader (SpectraMax 190, Molecular Devices) under temperature control (25° C.), and temperature was allowed to equilibrate. Fresh aliquot of enzyme from −80° C. was thawed on ice and diluted in activity buffer. Enzyme working solution was added to plate (50 μL per well, 20 nM enzyme final). After shaking for 5 s, reaction progress was monitored by absorbance at 340 nm every 15 s for 90 min. Linear portion of reaction progress curve was fit using plate-reader software (SoftMax Pro 7.0). Percent activity was calculated relative to DMSO-only and no-enzyme controls in each plate. Percent activity curves were fit to Morrison's quadratic using Graphpad Prism 6.0 to obtain apparent Ki.

H. sapiens HFF-1 = assay: In-vitro cytotoxicity; format: cell-based
E. coli ΔtolC (JW5503) = format: cell-based
Outline: (§3)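 MICs by CLSI broth microdilution in cation-adjusted Mueller-Hinton broth, performed in biological triplicate. Strains: efflux-deficient E. coli ΔtolC (JW5503, KEIO collection) and K. pneumoniae BAA-2472 (ATCC).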

K. pneumoniae BAA 2472 = assay: microbe, parasite or virus in culture; format: cell-based; conditions: Klebsiella pneumoniae, BAA2472, read-out: MIC K. pneumoniae BAA 2472
Outline: as §3

E. coli ATCC 25922 = assay: MIC; format: cell-based; conditions: Escherichia coli, ATCC25922; line under drawing, Table 8-1

## Cc1c(CN(C)C(=O)/C=C/c2cnc3c(c2)CCC(=O)N3)oc2ccccc12 [Debio-1452, (E)-N-methyl-N-((3-methylbenzofuran-2-yl)methyl)-3-(7-oxo-5,6,7,8-tetrahydro-1,8-naphthyridin-3-yl)acrylamide, reference compound]
In vitro [1]
  fraction unbound: 0.019
E. coli AR 0048
  MIC: > 32 µg/mL
A. baumannii AR 0273
  MIC: > 32 µg/mL
A. baumannii AR 0033
  MIC: > 32 µg/mL
A. baumannii AR 0313
  MIC: > 32 µg/mL
K. pneumoniae AR 0560
  MIC: > 32 µg/mL
A. baumannii AR 0299
  MIC: > 32 µg/mL
K. pneumoniae AR 0066
  MIC: > 32 µg/mL
E. coli AR 0085
  MIC: > 32 µg/mL
K. pneumoniae AR 0113
  MIC: > 32 µg/mL
In vitro [2]
  fraction unbound: 0.006
S. aureus ATCC 29213; S. aureus ATCC 29213, read-out: MIC S. aureus 29213
  MIC: 0.008 µg/mL (≈ 0.0213 µM)
HERG
  IC50: 5.5 µM
E. coli MG1655
  MIC: > 32 µg/mL
H. sapiens A549
  inhibition at 30 µM: 13 ± 6%
H. sapiens A549; cytotoxicity
  IC50: 166 ± 12 µM
A. baumannii FabI
  Ki: 0.799 ± 0.229 µM
H. sapiens HFF-1
  inhibition at 30 µM: 18 ± 6%
H. sapiens HFF-1; cytotoxicity
  IC50: 165 ± 42 µM
E. coli ΔtolC (JW5503); efflux deficient E. coli ΔtolC
  MIC E. coli ΔtolC: 0.062 µg/mL (≈ 0.165 µM)
K. pneumoniae BAA 2472
  MIC: > 32 µg/mL

## O=C1CCc2cc(/C=C/C(=O)N3CC4C=C(c5ccccc5)CC4C3)cnc2N1 (stereo not drawn) [reference compound]
S. aureus ATCC 29213; line under drawing, Table 8-1, read-out: MIC S. aureus ATCC 29213
  MIC: 0.016 µg/mL (≈ 0.0415 µM)
E. coli ATCC 25922
  MIC: > 32 µg/mL
E. coli ΔtolC (JW5503); line under drawing, Table 8-1
  MIC E. coli ΔtolC mutant: MIC E. coli ΔtolC mutant = ≤0.03 ug/mL
